For 27 molecules, Ki results are on record in patent publication US9815796B2 (Merck Sharp & Dohme Corp., priority 2013, dated 2017).

In one assay the target is human PDE2A1 (Homo sapiens (Human), UniProt O00408). The experiment in a line: IMAP FP PDE selectivity panel, human PDE2A1. The format is biochemical. The procedure, abridged: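 GST-tagged human PDE2A1 expressed in insect cells, run at room temperature for 60 min with 50 nM FAM-cAMP containing 1000 nM cGMP, pH 7.2 Tris/MgCl2 buffer. IMAP fluorescence polarization read after binding step.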
Sequence of human PDE2A1 (O00408 other isoform, or with tags, fused parts or gaps): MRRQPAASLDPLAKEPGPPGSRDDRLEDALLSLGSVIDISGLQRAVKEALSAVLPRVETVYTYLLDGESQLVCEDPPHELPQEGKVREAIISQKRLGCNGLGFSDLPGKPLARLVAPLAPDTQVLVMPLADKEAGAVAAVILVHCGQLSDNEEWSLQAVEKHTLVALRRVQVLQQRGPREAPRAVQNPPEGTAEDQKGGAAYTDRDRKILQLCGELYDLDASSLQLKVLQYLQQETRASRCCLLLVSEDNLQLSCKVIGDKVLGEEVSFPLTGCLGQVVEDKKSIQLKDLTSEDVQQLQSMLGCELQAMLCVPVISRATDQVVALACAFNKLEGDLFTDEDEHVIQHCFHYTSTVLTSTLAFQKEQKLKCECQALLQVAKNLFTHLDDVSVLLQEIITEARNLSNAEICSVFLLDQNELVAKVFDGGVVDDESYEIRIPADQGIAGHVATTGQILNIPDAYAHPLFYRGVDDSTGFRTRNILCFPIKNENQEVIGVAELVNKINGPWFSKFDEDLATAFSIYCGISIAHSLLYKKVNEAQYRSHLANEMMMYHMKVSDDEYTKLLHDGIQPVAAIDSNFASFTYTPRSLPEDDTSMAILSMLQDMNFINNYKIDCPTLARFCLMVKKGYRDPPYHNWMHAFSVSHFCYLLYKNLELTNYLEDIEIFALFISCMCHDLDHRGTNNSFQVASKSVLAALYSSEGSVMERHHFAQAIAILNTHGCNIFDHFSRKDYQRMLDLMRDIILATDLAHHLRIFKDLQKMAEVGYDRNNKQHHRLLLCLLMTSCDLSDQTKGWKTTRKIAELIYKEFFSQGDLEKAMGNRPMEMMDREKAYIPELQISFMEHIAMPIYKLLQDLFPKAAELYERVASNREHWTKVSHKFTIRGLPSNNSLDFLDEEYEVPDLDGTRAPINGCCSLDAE

The target in another assay is Rhesus PDE2A3 (Macaca mulatta, UniProt B3VTJ2). Nature of the assay: PDE2 fluorescence polarization (IMAP FP) inhibition assay, rhesus enzyme. It is filed as biochemical, rhesus macaque. The method, boiled down:
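Rhesus PDE2A3 came from lysate of transiently transfected AD293 cells, diluted to give 20% substrate conversion. Substrate was 50 nM FAM-cAMP with 1 uM cGMP activator in Tris pH 7.2/MgCl2 buffer, run 60 min at room temperature over 10-point 3-fold dilutions in 1% DMSO. Read-out was IMAP fluorescence polarization (mP) after ≥1 h binding.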
On the technique in general: Polarisation of emitted light reports the rotation of a fluorescent probe.

The mark [1] stands for this setting: Human PDE2, Lab A, read-out: Human PDE2 Ki (nM) - Lab A.
[2] abbreviates: Rhesus PDE2, Lab A, read-out: Rhesus PDE2 Ki (nM) - Lab A.
[3] abbreviates: Human PDE2, Lab B, read-out: Human PDE2 Ki (nM) - Lab B.
Setting [4] is: Rhesus PDE2, Lab B, read-out: Rhesus PDE2 Ki (nM) - Lab B.

For orientation: Ki means a measure of affinity in units of concentration, obtained from inhibition or displacement.

Where two headings read alike, the source gives them in different places.

Sequence of Rhesus PDE2A3 (B3VTJ2 1-941): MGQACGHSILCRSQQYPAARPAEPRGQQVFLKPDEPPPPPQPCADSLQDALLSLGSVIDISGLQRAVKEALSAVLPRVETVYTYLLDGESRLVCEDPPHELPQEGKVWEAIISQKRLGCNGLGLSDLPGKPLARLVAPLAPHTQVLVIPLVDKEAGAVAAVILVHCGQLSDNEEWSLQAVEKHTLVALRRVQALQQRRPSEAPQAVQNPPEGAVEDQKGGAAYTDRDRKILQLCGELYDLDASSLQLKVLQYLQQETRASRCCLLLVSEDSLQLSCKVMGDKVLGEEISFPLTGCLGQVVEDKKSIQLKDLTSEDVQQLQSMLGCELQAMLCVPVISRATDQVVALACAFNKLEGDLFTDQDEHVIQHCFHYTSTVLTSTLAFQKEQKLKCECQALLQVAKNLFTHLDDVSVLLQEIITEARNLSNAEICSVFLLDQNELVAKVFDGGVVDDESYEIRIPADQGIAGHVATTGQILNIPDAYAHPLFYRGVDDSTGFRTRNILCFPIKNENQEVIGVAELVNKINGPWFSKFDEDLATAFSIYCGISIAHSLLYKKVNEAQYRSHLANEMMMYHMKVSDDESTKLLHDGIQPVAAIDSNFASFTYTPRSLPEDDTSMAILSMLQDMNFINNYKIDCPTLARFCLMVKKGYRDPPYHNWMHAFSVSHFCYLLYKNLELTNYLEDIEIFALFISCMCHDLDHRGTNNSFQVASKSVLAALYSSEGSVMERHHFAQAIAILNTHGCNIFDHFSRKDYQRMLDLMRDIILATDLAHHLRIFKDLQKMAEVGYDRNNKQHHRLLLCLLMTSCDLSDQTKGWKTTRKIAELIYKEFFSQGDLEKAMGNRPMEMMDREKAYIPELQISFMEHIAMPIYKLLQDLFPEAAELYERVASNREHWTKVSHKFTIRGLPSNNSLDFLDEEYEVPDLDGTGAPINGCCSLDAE

Turning to `O=C(N[C@@H](c1ccc(OC(F)(F)F)c(F)c1)C1CC1)c1cc(=O)[nH]c(C2CC2)n1` [Example 212], the figures for the Ki at human PDE2A1 (setting [1]) and at Rhesus PDE2A3 (setting [2]) were 2.6 nM and 6.1 nM, respectively.

For `Cc1nc(C(=O)N[C@@H](c2ccc(OC(F)(F)F)c(F)c2)C(C)(C)C)cc(=O)[nH]1` [Example 60, (R)-N-(1-(3-fluoro-4-(trifluoromethoxy)phenyl)-2,2-dimethylpropyl)-2-methyl-6-oxo-1,6-dihydropyrimidine-4-carboxamide], the Ki on human PDE2A1 (setting [3]) amounted to 2.8 nM; on Rhesus PDE2A3 (setting [4]), 4.8 nM.

For `O=C(NC1(c2ccc(OC(F)(F)F)c(F)c2)CC1)c1cc(=O)[nH]c(-c2ncccn2)n1` [Example 81, N-{1-[3-fluoro-4-(trifluoromethoxy)phenyl]cyclopropyl}-6-oxo-1,6-dihydro-2,2′-bipyrimidine-4-carboxamide], the Ki on human PDE2A1 (setting [3]) is 25 nM; at Rhesus PDE2A3 (setting [2]) it was 23 nM; on Rhesus PDE2A3 (setting [4]) it was 17 nM.

With `Cc1nc(C(=O)NC(C)(C)c2ccc(OC(F)(F)F)c(F)c2)cc(=O)[nH]1` [Example 48, N-{1-[3-fluoro-4-(trifluoromethoxy)phenyl]-1-methylethyl}-2-methyl-6-oxo-1,6-dihydropyrimidine-4-carboxamide], the Ki turned out to be 127 nM at human PDE2A1 (setting [1]), 80 nM on human PDE2A1 (setting [3]) and 235 nM on Rhesus PDE2A3 (setting [2]).

`COc1ccc(Cc2nc(C(=O)N[C@@H](c3ccc(OC(F)(F)F)c(F)c3)C(C)C)cc(=O)[nH]2)cc1` [Example 473, N-{(1R)-1-[3-fluoro-4-(trifluoromethoxy)phenyl]-2-methylpropyl}-2-(4-methoxybenzyl)-6-oxo-1,6-dihydropyrimidine-4-carboxamide]: the results for the Ki on human PDE2A1 (setting [3]) and on Rhesus PDE2A3 (setting [4]) were 0.86 nM and 1.1 nM, respectively.

With `COc1ccc(Cc2nc(C(=O)N[C@@H](c3ccc(C(F)(F)F)cc3)C(C)(C)C)cc(=O)[nH]2)cc1` [Example 455, N-{(1R)-2,2-dimethyl-1-[4-(trifluoromethyl)phenyl]propyl}-2-(4-methoxybenzyl)-6-oxo-1,6-dihydropyrimidine-4-carboxamide], the inhibition constant (Ki) on human PDE2A1 (setting [3]) was determined as 0.6 nM; on Rhesus PDE2A3 (setting [4]), 0.68 nM.

On to `CC(C)[C@@H](NC(=O)c1cc(=O)[nH]c(-c2ccccc2)n1)c1ccc(C(F)(F)F)c(F)c1` [Example 383, N-{(1R)-1-[3-fluoro-4-(trifluoromethyl)phenyl]-2-methylpropyl}-6-oxo-2-phenyl-1,6-dihydropyrimidine-4-carboxamide], for which the Ki at human PDE2A1 (setting [3]) stood at 2.9 nM; on Rhesus PDE2A3 (setting [4]), 4.2 nM.

With `CCc1c(C(=O)N[C@H](C)c2ccc(C(F)(F)F)cc2)nc[nH]c1=O` [Example 332, (R)-5-ethyl-6-oxo-N-(1-(4-(trifluoromethyl)phenyl)ethyl)-1,6-dihydropyrimidine-4-carboxamide], the inhibition constant Ki at human PDE2A1 (setting [1]) is 2270 nM; on Rhesus PDE2A3 (setting [2]) it was 2900 nM.

Consider `COc1ccc(Cc2nc(C(=O)N[C@@H](c3ccc(C(F)(F)F)c(F)c3)C(C)(C)C)cc(=O)[nH]2)cc1F` [Example 508, 2-(3-fluoro-4-methoxybenzyl)-N-{(1R)-1-[3-fluoro-4-(trifluoromethyl)phenyl]-2,2-dimethylpropyl}-6-oxo-1,6-dihydropyrimidine-4-carboxamide], for which the inhibitory constant (Ki) stood at 0.8 nM on human PDE2A1 (setting [3]) and 0.77 nM on Rhesus PDE2A3 (setting [4]).

`COc1cccc(Cc2nc(C(=O)N[C@H](C)c3ccc(C(F)(F)F)cc3)cc(=O)[nH]2)c1` [Example 140, 2-(3-methoxybenzyl)-6-oxo-N-{(1R)-1-[4-(trifluoromethyl)phenyl]ethyl}-1,6-dihydropyrimidine-4-carboxamide]: the Ki on human PDE2A1 (setting [1]) worked out at 5.1 nM; at Rhesus PDE2A3 (setting [2]), 6.5 nM.

With `CC(C)(NC(=O)c1cc(=O)[nH]c(-c2ccccc2)n1)c1ccc(SC(F)(F)F)cc1` [Example 186, N-(1-methyl-1-{4-[(trifluoromethyl)sulfanyl]phenyl}ethyl)-6-oxo-2-phenyl-1,6-dihydropyrimidine-4-carboxamide], the inhibition constant (Ki) on human PDE2A1 (setting [1]) is 62 nM; on Rhesus PDE2A3 (setting [2]), 60 nM.

For the molecule `COc1ccc(C(C)(C)c2nc(C(=O)N[C@@H](c3ccc(OC(F)(F)F)cc3)C(C)C)cc(=O)[nH]2)cc1` [Example 494, 2-[1-(4-methoxyphenyl)-1-methylethyl]-N-{(1R)-2-methyl-1-[4-(trifluoromethoxy)phenyl]propyl}-6-oxo-1,6-dihydropyrimidine-4-carboxamide], the Ki on human PDE2A1 (setting [3]) came to 46 nM; at Rhesus PDE2A3 (setting [4]), 54 nM.

On to `C[C@@H](NC(=O)c1cc(=O)[nH]c(C2CC2)n1)c1ccc(C(F)(F)F)c(F)c1` [Example 234, 2-cyclopropyl-N-{(1R)-1-[3-fluoro-4-(trifluoromethyl)phenyl]ethyl}-6-oxo-1,6-dihydropyrimidine-4-carboxamide], for which the Ki came to 18 nM at human PDE2A1 (setting [1]) and 20 nM on Rhesus PDE2A3 (setting [2]).

On to `CC(C)[C@@H](NC(=O)c1cc(=O)[nH]c(-c2ccccc2)n1)c1ccc(C(F)(F)F)cc1` [Example 167, N-{(1R)-2-methyl-1-[4-(trifluoromethyl)phenyl]propyl}-6-oxo-2-phenyl-1,6-dihydropyrimidine-4-carboxamide], for which the inhibition constant (Ki) was 1.9 nM at human PDE2A1 (setting [1]), 2.3 nM on human PDE2A1 (setting [3]), 2.3 nM at Rhesus PDE2A3 (setting [2]) and 3.5 nM on Rhesus PDE2A3 (setting [4]).

`COc1ccc(Cc2nc(C(=O)N[C@@H](c3ccc(C(F)(F)F)cc3)C(C)C)cc(=O)[nH]2)cc1` [Example 474, 2-(4-methoxybenzyl)-N-{(1R)-2-methyl-1-[4-(trifluoromethyl)phenyl]propyl}-6-oxo-1,6-dihydropyrimidine-4-carboxamide]: the inhibition constant Ki on human PDE2A1 (setting [3]) came out at 1.5 nM; at Rhesus PDE2A3 (setting [4]), 1.4 nM.

For the molecule `Cc1nc(C(=O)N[C@@H](c2ccc(C(F)(F)F)c(F)c2)C2(C)CC2)cc(=O)[nH]1` [Example 613, N-[(R)-[3-fluoro-4-(trifluoromethyl)phenyl](1-methylcyclopropyl)methyl]-2-methyl-6-oxo-1,6-dihydropyrimidine-4-carboxamide], the Ki on human PDE2A1 (setting [3]) is 12 nM; on Rhesus PDE2A3 (setting [4]), 13 nM.

`Cc1nc(C(=O)N[C@H](C)c2ccc(C(F)(F)F)cc2)cc(=O)[nH]1` [Example 13, 2-methyl-6-oxo-N-{(1R)-1-[4-(trifluoromethyl)phenyl]ethyl}-1,6-dihydropyrimidine-4-carboxamide]: the Ki came to 33 nM on human PDE2A1 (setting [1]), 48 nM on human PDE2A1 (setting [3]), 50 nM at Rhesus PDE2A3 (setting [2]) and 48 nM on Rhesus PDE2A3 (setting [4]).

Consider `CC[C@@H](NC(=O)c1cc(=O)[nH]c(Cc2ccc(OC)c(F)c2)n1)c1ccc(OC(F)(F)F)cc1` [Example 529, 2-(3-fluoro-4-methoxybenzyl)-6-oxo-N-{(1R)-1-[4-(trifluoromethoxy)phenyl]propyl}-1,6-dihydropyrimidine-4-carboxamide], for which the Ki at human PDE2A1 (setting [3]) was determined as 2 nM; at Rhesus PDE2A3 (setting [4]) it was 2.2 nM.

Take `Cc1nc(C(=O)N[C@H](C)c2ccc(C3CC3)cc2)cc(=O)[nH]1` [Example 258, N-[(1R)-1-(4-cyclopropylphenyl)ethyl]-2-methyl-6-oxo-1,6-dihydropyrimidine-4-carboxamide]: the Ki on human PDE2A1 (setting [3]) was found to be 39 nM; on Rhesus PDE2A3 (setting [2]) it was 19 nM; at Rhesus PDE2A3 (setting [4]) it was 41 nM.

With `O=C(N[C@@H](c1ccc(S(F)(F)(F)(F)F)cc1)C1CC1)c1cc(=O)[nH]c(C2CC2)n1` [Example 397, 2-cyclopropyl-N-{(R)-cyclopropyl[4-(pentafluoro-λ^6-sulfanyl)phenyl]methyl}-6-oxo-1,6-dihydropyrimidine-4-carboxamide], the Ki at human PDE2A1 (setting [3]) is 8.6 nM; on Rhesus PDE2A3 (setting [4]), 8.2 nM.

As for `CC(NC(=O)c1cc(=O)[nH]c(C2CC2)n1)c1ccc(C(F)(F)F)cc1Cl` (stereo not shown) [Example 233, N-{1-[2-chloro-4-(trifluoromethyl)phenyl]ethyl}-2-cydopropyl-6-oxo-1,6-dihydropyrimidine-4-carboxamide], the figures for the Ki on human PDE2A1 (setting [1]) and on Rhesus PDE2A3 (setting [2]) were 78 nM and 124 nM, respectively.

Take `COCc1nc(C(=O)N[C@H](C)c2ccc(C(C)C)cc2)cc(=O)[nH]1` [Example 122, 2-(methoxymethyl)-N-{(1R)-1-[4-(1-methylethyl)phenyl]ethyl}-6-oxo-1,6-dihydropyrimidine-4-carboxamide]: the Ki at human PDE2A1 (setting [1]) was 38 nM; on Rhesus PDE2A3 (setting [2]), 152 nM.

As for `Cc1nc(C(=O)N[C@@H](c2ccc(C(F)(F)F)cc2)[C@@H](C)O)cc(=O)[nH]1` [Example 65, N-((1S,2R)-2-hydroxy-1-(4-(trifluoromethyl)phenyl)propyl)-2-methyl-6-oxo-1,6-dihydropyrimidine-4-carboxamide], the results for the Ki on human PDE2A1 (setting [1]) and at Rhesus PDE2A3 (setting [2]) were 18 nM and 38 nM, respectively.

Consider `COc1ccc(Cc2nc(C(=O)N[C@@H](c3ccc(OC(F)(F)F)c(F)c3)C(C)(C)C)cc(=O)[nH]2)cc1` [Example 464, N-{(1R)-1-[3-fluoro-4-(trifluoromethoxy)phenyl]-2,2-dimethylpropyl}-2-(4-methoxybenzyl)-6-oxo-1,6-dihydropyrimidine-4-carboxamide], for which the Ki worked out at 0.69 nM at human PDE2A1 (setting [3]) and 0.6 nM on Rhesus PDE2A3 (setting [4]).

Turning to `Cc1cc([C@@H](C)NC(=O)c2cc(=O)[nH]c(-c3ccccc3)n2)ccc1C(F)(F)F` [Example 189], the Ki is 9.7 nM at human PDE2A1 (setting [1]) and 10 nM at Rhesus PDE2A3 (setting [2]).

For the molecule `C[C@@H](NC(=O)c1cc(=O)[nH]cn1)c1ccc(C(F)(F)F)cc1` [Example 8, (R)-6-oxo-N-(1-(4-(trifluoromethyl)phenyl)ethyl)-1,6-dihydropyrimidine-4-carboxamide], the Ki on human PDE2A1 (setting [1]) is 334 nM; on Rhesus PDE2A3 (setting [2]) it was 410 nM.

Consider `COc1cc(OC(F)(F)F)ccc1C(C)NC(=O)c1cc(=O)[nH]c(C2CC2)n1` (stereo not shown) [Example 230, 2-cyclopropyl-N-{1-[2-methoxy-4-(trifluoromethoxy)phenyl]ethyl}-6-oxo-1,6-dihydropyrimidine-4-carboxamide], for which the inhibition constant Ki at human PDE2A1 (setting [1]) stood at 11 nM; on Rhesus PDE2A3 (setting [2]), 25 nM.
